Like-named read-outs stand apart in the source and are kept apart here.
Test system: Mycobacterium tuberculosis
Assay type: cell-based
[1] = anti-tuberculosis drug alone, […]

Compound	number of intracellular Mycobacterium tuberculosis	number of intracellular Mycobacterium tuberculosis [1]
CC[C@@H](CO)NCCN[C@@H](CC)CO [Ethambutol]	the number of Mycobacterium tuberculosis was reduced	
NNC(=O)c1ccncc1 [Isoniazid]		the number of Mycobacterium tuberculosis was reduced
NC(=O)c1cnccn1 [Pyrazinamide]		the number of Mycobacterium tuberculosis was reduced

— patent publication US10709765B2, “Composition for inhibiting survival or growth of tubercle bacillus by adjusting polarization of macrophage, and method using same” (priority 2016, dated 2020)
